Assay results as given in patent US9809573B2, “Substituted pyridine derivatives useful as GSK-3 inhibitors” (priority 2013, dated 2017).
Like-named read-outs stand apart in the source and are kept apart here.

Experiments:
GSK3β = GSK3β (Homo sapiens, UniProt P49841); assay: GSK3β kinase assay (Caliper LabChip3000, fluoresceinated peptide substrate); assay type: biochemical
Procedure, shortened: (§1)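 Eleven-point compound titrations (10 mM DMSO stocks) incubated with kinase and fluorescent peptide for 20 h at room temperature before EDTA quench. Substrate-to-product conversion measured by microfluidic mobility shift; IC50 from non-linear fitting.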

GSK3α = GSK3α (Homo sapiens, UniProt P49840); assay: biochemical
Procedure, shortened: as §1

pTau = pTau assay (method not described); assay type: cell-based
[1] = first value of the cell, 250 pM enzyme, 20 uM ATP, 20 hours at room temperature, read-out: GSK3β/α (nM): GSK3β IC50
[2] = second value of the cell, 250 pM enzyme, 20 uM ATP, 20 hours at room temperature, read-out: GSK3β/α (nM): GSK3α IC50

Chain of GSK3α (P49840 whole entry, species assumed): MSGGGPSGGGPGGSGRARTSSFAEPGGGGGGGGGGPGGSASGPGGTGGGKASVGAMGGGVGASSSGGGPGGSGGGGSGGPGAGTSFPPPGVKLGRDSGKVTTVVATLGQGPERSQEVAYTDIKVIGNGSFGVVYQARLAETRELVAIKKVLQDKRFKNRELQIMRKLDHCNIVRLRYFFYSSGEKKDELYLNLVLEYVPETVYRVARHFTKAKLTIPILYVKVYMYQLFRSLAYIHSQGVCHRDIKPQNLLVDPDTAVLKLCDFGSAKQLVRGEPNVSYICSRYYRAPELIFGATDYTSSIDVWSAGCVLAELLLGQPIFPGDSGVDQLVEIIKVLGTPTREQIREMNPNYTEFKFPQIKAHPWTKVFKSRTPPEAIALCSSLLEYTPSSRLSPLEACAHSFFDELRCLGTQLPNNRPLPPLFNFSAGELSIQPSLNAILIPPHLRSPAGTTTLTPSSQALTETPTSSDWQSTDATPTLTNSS
Chain of GSK3β (P49841 whole entry, species assumed): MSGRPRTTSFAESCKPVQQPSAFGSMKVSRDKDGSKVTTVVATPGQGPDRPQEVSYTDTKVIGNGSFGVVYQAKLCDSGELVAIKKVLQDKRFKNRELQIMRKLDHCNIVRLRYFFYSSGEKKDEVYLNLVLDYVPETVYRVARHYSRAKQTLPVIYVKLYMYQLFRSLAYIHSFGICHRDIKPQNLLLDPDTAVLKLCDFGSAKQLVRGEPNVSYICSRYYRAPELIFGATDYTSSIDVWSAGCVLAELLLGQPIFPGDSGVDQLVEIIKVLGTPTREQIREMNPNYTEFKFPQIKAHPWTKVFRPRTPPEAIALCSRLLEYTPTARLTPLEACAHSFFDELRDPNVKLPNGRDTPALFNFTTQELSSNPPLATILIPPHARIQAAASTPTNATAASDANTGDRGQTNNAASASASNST

Row | SMILES | IC50 (GSK3β; [1]) | IC50 (GSK3α; [2]) | IC50 (pTau; read-out: pTau) | IC50 (GSK3β) | IC50 (GSK3α) | IC50 (pTau; read-out: pTau (nM))
1 | O=C(Nc1cnccc1-c1ccc(OC(F)(F)F)cc1F)c1ccnc(NC(=O)C2CC2)c1 [Example 94, 2-(Cyclopropanecarboxamido)-N-(4-(2-fluoro-4-(trifluoromethoxy)phenyl)pyridin-3-yl)isonicotinamide] | 13 nM | 5 nM | 120 nM | – | – | –
2 | O=C(Nc1cnccc1-c1cc2ccccc2o1)c1ccnc(NC(=O)C2CC2)c1 [Example 95, N-(4-(benzofuran-2-yl)pyridin-3-yl)-2-(cyclopropanecarboxamido)isonicotinamide] | 1.9 nM | 1.4 nM | 100 nM | – | – | –
3 | Cn1c(-c2ccncc2NC(=O)c2ccnc(NC(=O)C3CC3)c2)cc2ccccc21 [Example 96, 2-(Cyclopropanecarboxamido)-N-(4-(1-methyl-1H-indol-2-yl)pyridin-3-yl)isonicotinamide] | 4.1 nM | 1.7 nM | 66 nM | – | – | –
4 | CC1(C)CC1C(=O)Nc1cc(C(=O)Nc2cnccc2-c2ccccc2)ccn1 (stereo not drawn) [Example 97, 2-(2,2-Dimethylcyclopropanecarboxamido)-N-(4-phenylpyridin-3-yl)isonicotinamide] | 1.1 nM | 8.5 nM | 870 nM | – | – | –
5 | O=C(Nc1cnccc1-c1ccccc1)c1ccnc(NC(=O)C2CC2(F)F)c1 (stereo not drawn) [Example 98, 2-(2,2-Difluorocyclopropanecarboxamido)-N-(4-phenylpyridin-3-yl)isonicotinamide] | 11 nM | 17 nM | 1400 nM | – | – | –
6 | CC1CC1C(=O)Nc1cc(C(=O)Nc2cnccc2-c2ccccc2)ccn1 (stereo not drawn) [Example 100, 2-(2-Methylcyclopropanecarboxamido)-N-(4-phenylpyridin-3-yl)isonicotinamide] | 26 nM | 7.5 nM | 350 nM | – | – | –
7 | COC(=O)c1cncc(NC(=O)c2ccnc(NC(=O)C3CC3)c2)c1 [Example 101, Methyl 5-(2-(cyclopropanecarboxamido)isonicotinamido)nicotinate] | 30 nM | 13 nM | 3100 nM | – | – | –
8 | Cc1cncc(NC(=O)c2ccnc(NC(=O)C3CC3)c2)c1 [Example 102, 2-(cyclopropanecarboxamido)-N-(5-methylpyridin-3-yl)isonicotinamide] | – | 5.4 nM | 740 nM | 9.5 nM | – | –
9 | O=C(O)c1cncc(NC(=O)c2ccnc(NC(=O)C3CC3)c2)c1 [Example 103, 5-(2-(cyclopropanecarboxamido)isonicotinamido)nicotinic Acid] | 197 nM | 121 nM | ≥ 10000 nM | – | – | –
10 | O=C(Nc1cncc(-c2ccccc2)c1)c1ccnc(NC(=O)C2CC2)c1 [Example 104, 2-(cyclopropanecarboxamido)-N-(5-phenylpyridin-3-yl)isonicotinamide] | – | – | – | 5 nM | 2 nM | 270 nM
11 | NC(=O)c1cncc(NC(=O)c2ccnc(NC(=O)C3CC3)c2)c1 [Example 105, 5-(2-(cyclopropanecarboxamido)isonicotinamido)nicotinamide] | 6.5 nM | 3.6 nM | 6900 nM | – | – | –
12 | O=C(Nc1cncc(-c2ccncc2)c1)c1ccnc(NC(=O)C2CC2)c1 [Example 106, N-([3,4′-bipyridin]-5-yl)-2-(cyclopropanecarboxamido)isonicotinamide] | – | 2.5 nM | 320 nM | 4.8 nM | – | –
13 | O=C(Nc1cncc(Oc2ccccc2)c1)c1ccnc(NC(=O)C2CC2)c1 [Example 107, 2-(cyclopropanecarboxamido)-N-(5-phenoxypyridin-3-yl)isonicotinamide] | – | 9.1 nM | 3300 nM | 19 nM | – | –
14 | O=C(Nc1cncc(N2CCCCC2)c1)c1ccnc(NC(=O)C2CC2)c1 [Example 108, 2-(cyclopropanecarboxamido)-N-(5-(piperidin-1-yl)pyridin-3-yl)isonicotinamide] | – | 23 nM | 5400 nM | 130 nM | – | –
15 | O=C(Nc1cncc(N2CCOCC2)c1)c1ccnc(NC(=O)C2CC2)c1 [Example 109, 2-(cyclopropanecarboxamido)-N-(5-morpholinopyridin-3-yl)isonicotinamide] | – | 17 nM | 2000 nM | 73 nM | – | –
16 | O=C(Nc1cncc(Cc2ccccc2)c1)c1ccnc(NC(=O)C2CC2)c1 [Example 110, N-(5-benzylpyridin-3-yl)-2-(cyclopropanecarboxamido)isonicotinamide] | 73 nM | 11 nM | 5600 nM | – | – | –
17 | O=C(Nc1cncc(-c2ccc(F)cc2)c1)c1ccnc(NC(=O)C2CC2)c1 [Example 111, 2-(cyclopropanecarboxamido)-N-(5-(4-fluorophenyl)pyridin-3-yl)isonicotinamide] | – | 0.95 nM | 570 nM | 6.4 nM | – | –

Row | SMILES | IC50 (GSK3β; [1]) | IC50 (GSK3α; [2]) | IC50 (pTau; read-out: pTau) | IC50 (GSK3β) | IC50 (GSK3α) | IC50 (pTau; read-out: pTau (nM))
18 | O=C(Nc1cncc(C2CCC2)c1)c1ccnc(NC(=O)C2CC2)c1 [Example 113, N-(5-cyclobutylpyridin-3-yl)-2-(cyclopropanecarboxamido)isonicotinamide] | – | 1.75 nM | 330 nM | 1 nM | – | –
19 | O=C(Nc1cncc(-c2ccc(F)cc2F)c1)c1ccnc(NC(=O)C2CC2)c1 [Example 114, 2-(cyclopropanecarboxamido)-N-(5-(2,4-difluorophenyl)pyridin-3-yl)isonicotinamide] | 1.6 nM | 1.3 nM | 990 nM | – | – | –
20 | N#Cc1ccc(-c2cncc(NC(=O)c3ccnc(NC(=O)C4CC4)c3)c2)cc1 [Example 115, N-(5-(4-cyanophenyl)pyridin-3-yl)-2-(cyclopropanecarboxamido)isonicotinamide] | 4.1 nM | 4.3 nM | 780 nM | – | – | –
21 | O=C(Nc1cncc(-c2ccccc2F)c1)c1ccnc(NC(=O)C2CC2)c1 [Example 116, 2-(cyclopropanecarboxamido)-N-(5-(2-fluorophenyl)pyridin-3-yl)isonicotinamide] | – | – | – | 0.35 nM | 0.28 nM | 180 nM
22 | O=C(Nc1cncc(-n2cccn2)c1)c1ccnc(NC(=O)C2CC2)c1 [Example 118, N-(5-(1H-pyrazol-1-yl)pyridin-3-yl)-2-(cyclopropanecarboxamido)isonicotinamide] | 1.5 nM | 0.74 nM | 330 nM | – | – | –
23 | O=C(Nc1cncc(-n2ccnc2)c1)c1ccnc(NC(=O)C2CC2)c1 [Example 119, N-(5-(1H-imidazol-1-yl)pyridin-3-yl)-2-(cyclopropanecarboxamido)isonicotinamide] | 2.4 nM | 1 nM | 410 nM | – | – | –
24 | O=C(Nc1cncc(-c2ccc(OC(F)(F)F)cc2)c1)c1ccnc(NC(=O)C2CC2)c1 [Example 120, 2-(cyclopropanecarboxamido)-N-(5-(4-(trifluoromethoxy)phenyl)pyridin-3-yl)isonicotinamide] | 11 nM | 8 nM | 5400 nM | – | – | –
25 | COc1ccccc1-c1cncc(NC(=O)c2ccnc(NC(=O)C3CC3)c2)c1 [Example 123, 2-(cyclopropanecarboxamido)-N-(5-(2-methoxyphenyl)pyridin-3-yl)isonicotinamide] | – | 1.4 nM | – | 3.7 nM | – | 200 nM
26 | O=C(Nc1cncc(-c2ccccc2C(F)(F)F)c1)c1ccnc(NC(=O)C2CC2)c1 [Example 124, 2-(cyclopropanecarboxamido)-N-(5-(2-(trifluoromethyl)phenyl)pyridin-3-yl)isonicotinamide] | 12 nM | 6.1 nM | 510 nM | – | – | –
27 | O=C(Nc1cncc(-c2cc(F)ccc2F)c1)c1ccnc(NC(=O)C2CC2)c1 [Example 142, 2-(cyclopropanecarboxamido)-N-(5-(2,5-difluorophenyl)pyridin-3-yl)isonicotinamide] | – | – | – | 1.5 nM | 0.76 nM | 100 nM
28 | CN(C)Cc1ccccc1-c1cncc(NC(=O)c2ccnc(NC(=O)C3CC3)c2)c1 [Example 145, 2-(cyclopropanecarboxamido)-N-(5-(2-((dimethylamino)methyl)phenyl)pyridin-3-yl)isonicotinamide] | 780 nM | 170 nM | 1400 nM | – | – | –
29 | O=C(Nc1cncc(-c2cccc3[nH]ccc23)c1)c1ccnc(NC(=O)C2CC2)c1 [Example 147, N-(5-(1H-indol-4-yl)pyridin-3-yl)-2-(cyclopropanecarboxamido)isonicotinamide] | 27 nM | 5.9 nM | 950 nM | – | – | –
30 | O=C(Nc1cncc(-c2ccc(Cl)cc2Cl)c1)c1ccnc(NC(=O)C2CC2)c1 [Example 148, 2-(cyclopropanecarboxamido)-N-(5-(2,4-dichlorophenyl)pyridin-3-yl)isonicotinami] | 9.7 nM | 2.4 nM | 620 nM | – | – | –
31 | Cn1ccc(-c2cncc(NC(=O)c3ccnc(NC(=O)C4CC4)c3)c2)c1 [Example 151, 2-(cyclopropanecarboxamido)-N-(5-(1-methyl-1H-pyrrol-3-yl)pyridin-3-yl)isonicotinamide] | 8.8 nM | 3.1 nM | 240 nM | – | – | –
32 | O=C(Nc1cncc(-c2cccc(Cl)c2)c1)c1ccnc(NC(=O)C2CC2)c1 [Example 155, N-(5-(3-chlorophenyl)pyridin-3-yl)-2-(cyclopropanecarboxamido)isonicotinamide] | 9.1 nM | 3.3 nM | 770 nM | – | – | –
33 | O=C(Nc1cncc(-c2cccc(N3CCOCC3)c2)c1)c1ccnc(NC(=O)C2CC2)c1 [Example 156, 2-(cyclopropanecarboxamido)-N-(5-(3-morpholinophenyl)pyridin-3-yl)isonicotinamide] | 11 nM | 3.6 nM | 420 nM | – | – | –
34 | O=C(Nc1cncc(-c2cccc(OC(F)F)c2)c1)c1ccnc(NC(=O)C2CC2)c1 [Example 157, 2-(cyclopropanecarboxamido)-N-(5-(3-(difluoromethoxy)phenyl)pyridin-3-yl)isonicotinamide] | 7.9 nM | 3.3 nM | 670 nM | – | – | –
